Drawing on patent US20240059703A1 (AMGEN INC., priority 2021, published 2024), this text covers IC50 for 19 compounds.

In general, IC50 refers to the point on the concentration scale where inhibition reaches its midpoint. A higher IC50 goes with a need for much substance.

In one assay the target is KRAS G12C (Homo sapiens (Human), UniProt P01116, C118A/G12C). Briefly: 2 h coupled exchange assay. Format: biochemical. The following applies: Avg 2 h Coupled exchange IC50, 2 h compound pre-incubation, SOS-mediated nucleotide exchange. As for the experimental part:
The term “2 h coupled exchange assay” or “20 h coupled exchange assay” as used herein refers to the assay described in the Section entitled “BIOLOGICAL EVALUATION.”

Assay [1] has as its system MIA PaCa-2 (human pancreatic carcinoma) cells. Briefly: Cell Viability Assay (CellTiter-Glo), MIA PaCa-2. Format: cell-based. The following applies: Homo sapiens, MIA PaCa-2, 72 h. As to the method:
Serially-diluted compound or DMSO was added to the cells, and plates were incubated at 37° C., 5% CO2 for 72 h. Cell viability was measured using a CellTiter-Glo® Luminescent Cell Viability Assay kit (Promega) according to the manufacturer's protocol. The luminescence signal of treated samples was normalized to DMSO control, and data were analyzed using a 4-parameter logistic model to calculate IC50 values.
(In general: Cellular ATP, detected with luciferase, serves as a proxy for viable cell number.)

The test system of assay [2] is A549 (human lung carcinoma) cells. Put plainly: Cell Viability Assay (CellTiter-Glo), A549. Format: cell-based. To be noted: Homo sapiens, A549, 72 h. In a few lines:
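Seeding at 1.67E+04 cells/mL is followed by overnight attachment at 37° C., 5% CO2. Serially diluted compound is added for 72 h. Viability is read by CellTiter-Glo luminescence, scaled to DMSO and fitted (4-parameter logistic) to give IC50.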

Chain of KRAS G12C (P01116 other isoform, or with tags, fused parts or gaps G12C/C118A): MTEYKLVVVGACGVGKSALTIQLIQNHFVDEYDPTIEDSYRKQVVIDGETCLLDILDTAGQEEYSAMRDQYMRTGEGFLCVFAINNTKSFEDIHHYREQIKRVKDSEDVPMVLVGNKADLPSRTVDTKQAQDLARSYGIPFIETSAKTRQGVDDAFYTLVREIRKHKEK

Regarding `C=CC(=O)N1CC2(CCN(c3nc4c(c(-c5c(C)cc(F)c6[nH]ncc56)c3C#N)C[C@H]3C[C@@H]4C3(C)C)C2)C1` [Example 12-11, (1R,9R)-6-(7-fluoro-5-methyl-1H-indazol-4-yl)-10,10-dimethyl-4-(2-(2-propenoyl)-2,6-diazaspiro[3.4]octan-6-yl)-3-azatricyclo[7.1.1.0^2,7] undeca-2,4,6-triene-5-carbonitrile], the values for the IC50 (on KRAS G12C; in assay [1]; in assay [2]) were 36 nM, 20 nM and 3780 nM, respectively.
The like results for `C=CC(=O)N1CC2(CCN(c3nc4c(c(-c5c(C)ccn6cncc56)c3C#N)C[C@H]3C[C@@H]4C3(C)C)C2)C1` [Example 12-19, (1R,9R)-10,10-dimethyl-6-(7-methylimidazo[1,5-a]pyridin-8-yl)-4-(2-(2-propenoyl)-2,6-diazaspiro[3.4]octan-6-yl)-3-azatricyclo[7.1.1.0^2,7] undeca-2,4,6-triene-5-carbonitrile] were, in that order, 37 nM, 18 nM and 3740 nM.
As for `C=CC(=O)N1CC2(CCN(c3nc4c(c(-c5c(C)ccc6c(Cl)c[nH]c56)c3C#N)COC(C)(C)C4)C2)C1` [Example 12-20, 4-(3-chloro-6-methyl-1H-indol-7-yl)-7,7-dimethyl-2-(2-(2-propenoyl)-2,6-diazaspiro[3.4]octan-6-yl)-7,8-dihydro-5H-pyrano[4,3-b]pyridine-3-carbonitrile], the IC50 is 105 nM against KRAS G12C, 2570 nM in assay [1] and greater than 5000 nM in assay [2].
The corresponding values for `C=CC(=O)N1CC2(CCN(c3nc4c(c(-c5c(C)c(Cl)cc6cnn(C)c56)c3C)CCN(C(C)C)C4)C2)C1` [Example 12-22, 1-(6-(4-(5-chloro-1,6-dimethyl-1H-indazol-7-yl)-3-methyl-7-(2-propanyl)-5,6,7,8-tetrahydro-1,7-naphthyridin-2-yl)-2,6-diazaspiro[3.4]octan-2-yl)-2-propen-1-one] are 37 nM, 44 nM and greater than 5000 nM.
As for `C=CC(=O)N1CC2(CCN(c3nc4c(c(-c5cc(O)cc(F)c5Cl)c3C#N)C[C@H]3C[C@@H]4C3(C)C)C2)C1` [Example 12-34, (1R,9R)-6-(2-chloro-3-fluoro-5-hydroxyphenyl)-10,10-dimethyl-4-(2-(2-propenoyl)-2,6-diazaspiro[3.4]octan-6-yl)-3-azatricyclo[7.1.1.0^2,7] undeca-2,4,6-triene-5-carbonitrile], the concentration for half-maximal inhibition (IC50) is 20 nM at KRAS G12C, 92 nM in assay [1] and greater than 5000 nM in assay [2].
On to `C=CC(=O)N1CC2(CCN(c3nc4c(c(-c5cc(O)cnc5Cl)c3C#N)C[C@H]3C[C@@H]4C3(C)C)C2)C1` [Example 12-35, (1R,9R)-6-(2-chloro-5-hydroxy-3-pyridinyl)-10,10-dimethyl-4-(2-(2-propenoyl)-2,6-diazaspiro[3.4]octan-6-yl)-3-azatricyclo[7.1.1.0^2,7] undeca-2,4,6-triene-5-carbonitrile], for which the concentration for half-maximal inhibition (IC50) at KRAS G12C is 44 nM; in assay [1], 1090 nM; in assay [2], greater than 5000 nM.
Consider `C=CC(=O)N1CC2(CCN(c3nc4c(c(-c5cccc6cc(O)ccc56)c3C#N)COC(C)(C)C4)C2)C1` [Example 12-41, 4-(6-hydroxy-1-naphthalenyl)-7,7-dimethyl-2-(2-(2-propenoyl)-2,6-diazaspiro[3.4]octan-6-yl)-7,8-dihydro-5H-pyrano[4,3-b]pyridine-3-carbonitrile], for which the IC50 against KRAS G12C is 110 nM; in assay [1] it was 502 nM; in assay [2] it was greater than 5000 nM.
The corresponding values for `C=CC(=O)N1CC2(CCN(c3nc4c(c(-c5cccc6c(F)c(O)ccc56)c3C)COC(C)(C)C4)C2)C1` [Example 12-45, 1-(6-(4-(5-fluoro-6-hydroxy-1-naphthalenyl)-3,7,7-trimethyl-7,8-dihydro-5H-pyrano[4,3-b]pyridin-2-yl)-2,6-diazaspiro[3.4]octan-2-yl)-2-propen-1-one] are 760 nM, greater than 5000 nM and greater than 5000 nM.
As to `Cc1ccc2[nH]ncc2c1-c1c(C#N)c(N2CCC3(CN(C(=O)/C=C/CN(C)C)C3)C2)nc2c1CCC(C)(C)C2` [Example 13-2, 2-(2-((2E)-4-(dimethylamino)-2-butenoyl)-2,6-diazaspiro[3.4]octan-6-yl)-7,7-dimethyl-4-(5-methyl-1H-indazol-4-yl)-5,6,7,8-tetrahydro-3-quinolinecarbonitrile], the values for the IC50 (on KRAS G12C; in assay [1]; in assay [2]) were 61 nM, 366 nM and 3700 nM, respectively.
The corresponding values for `C=C(Cl)C(=O)N1CC2(CCN(c3nc4c(c(-c5c(C)ccc6[nH]ncc56)c3C#N)CCC(C)(C)C4)C2)C1` [Example 13-3, 2-(2-(2-chloro-2-propenoyl)-2,6-diazaspiro[3.4]octan-6-yl)-7,7-dimethyl-4-(5-methyl-1H-indazol-4-yl)-5,6,7,8-tetrahydro-3-quinolinecarbonitrile] are 166 nM, 625 nM and 1250 nM.
The corresponding values for `COC/C=C/C(=O)N1CC2(CCN(c3nc4c(c(-c5c(C)ccc6[nH]ncc56)c3C#N)CCC(C)(C)C4)C2)C1` [Example 13-4, 2-(2-((2E)-4-methoxy-2-butenoyl)-2,6-diazaspiro[3.4]octan-6-yl)-7,7-dimethyl-4-(5-methyl-1H-indazol-4-yl)-5,6,7,8-tetrahydro-3-quinolinecarbonitrile] are 357 nM, 1620 nM and greater than 5000 nM.
Consider `C=CC(=O)N1CC2(CCN(c3nc4c(c(-c5ccccc5Cl)c3C#N)COC(C)(C)C4)C2)C1` [Example 13-5, 4-(2-chlorophenyl)-7,7-dimethyl-2-(2-(2-propenoyl)-2,6-diazaspiro[3.4]octan-6-yl)-7,8-dihydro-5H-pyrano[4,3-b]pyridine-3-carbonitrile], for which the figures for the IC50 (against KRAS G12C; in assay [1]; in assay [2]) were 973 nM, greater than 5000 nM and greater than 5000 nM, respectively.
In the case of `Cc1ccc2[nH]ncc2c1-c1c(C#N)c(N2CCC3(CN(C(=O)/C=C/C(F)F)C3)C2)nc2c1CCC(C)(C)C2` [Example 13-8, 2-(2-((2E)-4,4-difluoro-2-butenoyl)-2,6-diazaspiro[3.4]octan-6-yl)-7,7-dimethyl-4-(5-methyl-1H-indazol-4-yl)-5,6,7,8-tetrahydro-3-quinolinecarbonitrile], the IC50 on KRAS G12C stood at 44 nM; in assay [1], 218 nM; in assay [2], 3370 nM.
The corresponding values for `C=CC(=O)N1CC2(CCN(c3nc4c(c(-c5c(C)ccc6[nH]ncc56)c3C#N)CC3(CC4)CC3)C2)C1` [Example 13-11, 4′-(5-methyl-1H-indazol-4-yl)-2′-(2-(2-propenoyl)-2,6-diazaspiro[3.4]octan-6-yl)-7′,8′-dihydro-5′H-spiro[cyclopropane-1,6′-quinoline]-3′-carbonitrile] are 67 nM, 537 nM and 4240 nM.
The corresponding values for `C=CC(=O)N1CC2(CCN(c3nc4c(c(-c5c(C)ccc6[nH]ncc56)c3C#N)CC(C)(C)C4)C2)C1` [Example 13-12, 6,6-dimethyl-4-(5-methyl-1H-indazol-4-yl)-2-(2-(2-propenoyl)-2,6-diazaspiro[3.4]octan-6-yl)-6,7-dihydro-5H-cyclopenta[b]pyridine-3-carbonitrile] are 29 nM, 157 nM and greater than 5000 nM.
In the case of `C=CC(=O)N1CC2(CCN(c3nc4c(c(-c5c(C)ccc6[nH]ncc56)c3C#N)CC3(CC3)C4)C2)C1` [Example 13-14, 4-(5-methyl-1H-indazol-4-yl)-2-(2-(2-propenoyl)-2,6-diazaspiro[3.4]octan-6-yl)-5,7-dihydrospiro[cyclopenta[b]pyridine-6,1′-cyclopropane]-3-carbonitrile], the IC50 is 34 nM against KRAS G12C, 517 nM in assay [1] and greater than 5000 nM in assay [2].
The corresponding values for `C=CC(=O)N1CC2(CCN(c3nc4c(c(-c5c(C)ccc6[nH]ncc56)c3C#N)COCCC4(F)F)C2)C1` [Example 13-15, 9,9-difluoro-4-(5-methyl-1H-indazol-4-yl)-2-(2-(2-propenoyl)-2,6-diazaspiro[3.4]octan-6-yl)-5,7,8,9-tetrahydrooxepino[4,3-b]pyridine-3-carbonitrile] are 163 nM, 1170 nM and greater than 5000 nM.
`C=CC(=O)N1CC2(CCN(c3nc4c(c(-c5c(C)ccc6cnn(C)c56)c3C#N)CC(C)(C)C4)C2)C1` [Example 13-16, 4-(1,6-dimethyl-1H-indazol-7-yl)-6,6-dimethyl-2-(2-(2-propenoyl)-2,6-diazaspiro[3.4]octan-6-yl)-6,7-dihydro-5H-cyclopenta[b]pyridine-3-carbonitrile]: the figures for the IC50 (against KRAS G12C; in assay [1]; in assay [2]) were 82 nM, 393 nM and greater than 5000 nM, respectively.
The corresponding values for `C=CC(=O)N1CC2(CCN(c3nc4c(c(-c5ccccc5Cl)c3C#N)CCC(c3ccnn3C)C4)C2)C1` [Example 13-19, (7R)-4-(2-chlorophenyl)-7-(1-methyl-1H-pyrazol-5-yl)-2-(2-(2-propenoyl)-2,6-diazaspiro[3.4]octan-6-yl)-5,6,7,8-tetrahydro-3-quinolinecarbonitrile|(7S)-4-(2-chlorophenyl)-7-(1-methyl-1H-pyrazol-5-yl)-2-(2-(2-propenoyl)-2,6-diazaspiro[3.4]octan-6-yl)-5,6,7,8-tetrahydro-3-quinolinecarbonitrile] are 64 nM, 338 nM and greater than 5000 nM.
